We go through 1 molecule from ChEMBL document CHEMBL1138848, “Tetrahydrobiopterin binding to aromatic amino acid hydroxylases. Ligand recognition and specificity” (J Med Chem, 2004).

Experiment [1] deals with T1, Phenylalanine-4-hydroxylase (Homo sapiens, UniProt P00439).
T1 sequence (P00439 whole entry): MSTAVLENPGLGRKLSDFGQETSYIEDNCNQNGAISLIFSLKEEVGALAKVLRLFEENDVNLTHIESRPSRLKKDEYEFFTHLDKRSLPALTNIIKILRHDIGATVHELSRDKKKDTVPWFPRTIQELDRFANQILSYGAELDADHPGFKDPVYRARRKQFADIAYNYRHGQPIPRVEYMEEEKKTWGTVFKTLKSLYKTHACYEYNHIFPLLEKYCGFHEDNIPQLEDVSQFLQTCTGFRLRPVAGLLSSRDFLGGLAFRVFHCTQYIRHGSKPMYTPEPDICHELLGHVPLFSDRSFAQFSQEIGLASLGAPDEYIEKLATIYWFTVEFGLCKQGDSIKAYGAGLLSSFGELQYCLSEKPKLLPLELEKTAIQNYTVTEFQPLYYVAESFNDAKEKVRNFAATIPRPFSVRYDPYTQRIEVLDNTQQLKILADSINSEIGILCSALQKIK
Kind of experiment: Inhibitory concentration against human phenylalanine hydroxylase.

Experiment [2] concerns the target T1, Phenylalanine-4-hydroxylase. Put plainly: Binding affinity for human phenylalanine hydroxylase.

For `CC(O)C(O)C1CNc2c(nc(N)[nH]c2=O)N1` (configuration not stated), in experiment [1], the IC50 was determined as 1 µM. The same molecule yielded a Ki in experiment [2] of 7 µM.

For orientation: IC50 means the point on the concentration scale where inhibition reaches its midpoint. As usually defined, the Ki is a dissociation constant, usually derived from enzyme kinetics or from competition with a known ligand. A low value points to a stronger hold on the target.
